Several values for one entry are separate records, joined by “and”; a condition that tells them apart may be missing. Equal entries are not always repeated.
Assays:
NDM-1-C208A = NDM-1-C208A (Klebsiella pneumoniae, UniProt C7C422, C208A); assay: Bi(III) binding capacity by ICP-MS
Experimental: To monitor the displacement of Zn(II) by Bi(III), ICP-MS was employed to accurately quantify ^209Bi and ^66Zn contents in various purified NDM-1 samples. Purified Zn-bound-NDM-1 (20 μM) dissolved in trace-metal-free ICP-MS buffer containing 50 mM HEPES, pH 7.0, was incubated with various concentrations of CBS at 25 °C for 5 h with mild shaking. The samples were subsequently dialyzed in ICP-MS buffer to remove unbound-metal ions and were then acidified and subsequently analyzed using an ICP-MS spectrometer (Agilent 7500a, Agilent Technologies, CA, USA) with ^115In as an internal standard for ^209Bi, ^66Zn, and ^34S contents, which are used to quantify protein concentration.

NDM-1 [1] = target: T1, NDM-1 (Klebsiella pneumoniae, UniProt C7C422); assay: Zinc supplementation assay; format: biochemical; settings: supplementation of 2 molar equivalents of Zn(II); Bi-NDM-1 prepared with CBS
Experimental: To investigate whether bismuth inhibits the enzyme reversibly, enzyme activities of Bi-NDM-1 and apo-NDM-1 were compared upon the supplementation of Zn(II). Bi-bound NDM-1 (50 nM) was prepared by pre-incubation of apo-bound NDM-1 with CBS for 2 h at 25 °C, followed by removal of unbound Bi(III) and the bound Bi was verified by ICP-MS. The above protein solutions were mixed with ZnSO4 at concentration up to 2 molar equivalents to NDM-1 and 100 µM MER. The change in absorbance at 300 nm was monitored on a Varian Cary 50 UV-visible spectrophotometer at 25 °C for calculation of reaction rates. Reaction rate of apo-NDM-1 with addition of 2 molar equivalents of ZnSO4 was normalized to 1. The metal content of Bi-bound NDM-1 treated with Zn(II) was measured and analyzed by ICP-MS as described in the previous section.
Target sequence in this assay (C7C422 29-270, looked up, species assumed): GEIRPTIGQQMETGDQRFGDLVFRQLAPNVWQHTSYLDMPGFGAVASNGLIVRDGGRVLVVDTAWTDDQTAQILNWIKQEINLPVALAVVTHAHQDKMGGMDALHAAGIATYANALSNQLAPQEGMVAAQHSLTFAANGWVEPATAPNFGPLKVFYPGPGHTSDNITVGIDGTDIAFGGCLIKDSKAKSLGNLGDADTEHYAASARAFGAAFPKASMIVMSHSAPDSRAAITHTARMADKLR

NDM-1 [2] = target: T1, NDM-1; format: biochemical
Target sequence in this assay (C7C422 29-270, looked up, species assumed): as above
Experimental: NDM-1 (50 nM) was incubated with Bi(NIT)3 (0.5, 1.0, and 1.5 µM) for 1 h at 25 °C with gentle shaking. The assay was performed in a 96-well microplate reader at 298 K. The final assay buffer contains 50 mM HEPES at pH 7.0, 100 mM NaCl, with MER as the substrate ranging from 10 to 150 µM. Control experiment was also performed in the absence of inhibitors under the same conditions. The Km and Vmax for both the uninhibited and inhibited reactions were obtained by fitting the data into the double reciprocal Lineweaver–Burk plots.

NDM-1 [3] = target: T1, NDM-1; format: cell-based; parameters: endogenous in cells; host or cells: E. coli clinical isolate NDM-HK; settings: NDM-HK cultured with 100 µM compound; control 50.1 °C
Experimental: The cellular thermal shift assay was performed according to a standard method. Clinical isolate of NDM-1-positive E. coli (NDM-HK) was cultured overnight in the absence or presence of 100 µM Bi(III) compounds, i.e., CBS, Bi(NAC)3, Bi(NIT)3. The bacterial pellets were harvested and washed with PBS for 4 times. The cell suspensions were aliquoted into PCR tubes and heat treatment was performed at the designated temperature ranging from 40 °C to 70 °C for 3 min in a 96-well thermal cycler. The tubes were cooled immediately at room temperature for another 3 min after heating and the heating procedures were repeated for three cycles. For the cell lysis, the samples were frozen–thawed for two cycles in liquid nitrogen and thermal cycler set at 25 °C. The samples were vortexed gently after each cycle and were centrifuged at 20,000 × g to obtain the supernatant when the second cycle was finished. All the samples were subjected to western blot analysis for detection and quantification of NDM-1 content as described above.
Target sequence in this assay (C7C422 29-270 limits assumed): as the sequence (C7C422 29-270, looked up, species assumed) above

[4] = system: NDM-C. freundii (NDM-1^+); assay: Microdilution MIC/MBC and checkerboard assay; format: cell-based, Citrobacter freundii; settings: for MBC of MER in combination with compound at 32 µg mL^-1 / MIC of MER in combination with compound at 32 µg mL^-1: NDM-C. freundii (NDM-CF); for MBC of Bi(III) compound alone / MIC of Bi(III) compound alone / FICI: NDM-CF; for FICI: MER + compound, 256 µg mL^-1 set as MIC of Bi(III)
Experimental: (§1) MIC values were determined by standard broth micro-dilution method (Clinical and Laboratory Standards Institute (CLSI) M100-S20, 2010)[64]. Briefly, bacterial cells were cultured in LB broth overnight at 37 °C at 250 rpm and the OD was measured at 600 nm (OD600). The bacterial density was adjusted to about 1 × 10^6 CFU mL^−1 and checked by CFU counting on agar plates afterwards. Tested antibiotics or Bi(III) compounds were added triplicately into individual wells of flat-bottomed 96-well plates and performed 2-fold serial dilution, followed by addition of prepared bacterial inocula. The plate was then incubated at 37 °C for overnight. […] The MIC was determined as the lowest concentration of a drug that could inhibit the growth of microorganism by both visual reading and OD reading at 600 nm using a microtiter plate reader.
(§2) Resulting growth (or lack of growth) was examined after overnight culturing and the lowest concentration that inhibits 99.9% of the original culture was taken as MBC.
(§3) Other procedures were kept strictly the same. […] Synergism was defined when FICI ≤ 0.5, indifference was defined when FICI > 0.5 and < 4, and antagonism was defined when FICI≥4[65]. […] All of the determinations were performed at least in triplicate on different days.

NDM-HK [5] = system: NDM-HK
Experimental: Metal salts used for the screening involved bismuth nitrate (Bi(III)), gallium nitrate (Ga(III)), sodium stibogluconate (Sb(V)), chromium chloride (Cr(III)), cobalt chloride (Co(II)), nickel chloride (Ni(II)), ruthenium chloride (Ru(II)), and copper sulfate (Cu(II)). Briefly, different concentrations (10, 50, and 200 μM) of metal compounds were added to LB medium containing 8 μg mL^−1 of MER in 96-well plates. About 2 × 10^6 CFU mL^−1 logarithmic cultures of NDM-HK were added to each well of the plates and co-incubated for overnight. The growth inhibition of bacteria was monitored by OD reading at 600 nm and serial dilution in LB agar plate. Wells with no antibiotics or metal compounds served as growth controls, and wells with no bacteria added served as background controls. Each test was performed in triplicate. The inhibition was calculated as [1−(ODsample−ODbackground)/(ODcontrol−ODbackground)] ×100%. CFU was counting by 10-fold serial dilution in PBS and 10 μL was spotted in LB agar plate.

VIM-BL21 (VIM-2^+) = assay: microbe, parasite or virus in culture; format: cell-based, E. coli; settings: for MBC of MER in combination with compound at 32 µg mL^-1 / MIC of MER in combination with compound at 32 µg mL^-1 / FICI: VIM-BL21; for FICI: MER + compound, 256 µg mL^-1 set as MIC of Bi(III)
Experimental: as §1, §2, §3

NDM-HK (NDM-1^+) = assay: microbe, parasite or virus in culture; format: cell-based, E. coli
Experimental: as §1, §2, §3

IMP-BL21 (IMP-4^+) = assay: microbe, parasite or virus in culture; format: cell-based, E. coli; settings: for MBC of MER in combination with compound at 32 µg mL^-1 / MIC of MER in combination with compound at 32 µg mL^-1 / FICI: IMP-BL21; for FICI: MER + compound, 256 µg mL^-1 set as MIC of Bi(III)
Experimental: as §1, §2, §3

[6] = system: NDM-K. pneumonia (NDM-1^+); assay: Microdilution MIC/MBC and checkerboard assay; format: cell-based, Klebsiella pneumonia; settings: for MBC of MER in combination with compound at 32 µg mL^-1 / MIC of MER in combination with compound at 32 µg mL^-1: NDM-K. pneumonia (NDM-KP); for MBC of Bi(III) compound alone / MIC of Bi(III) compound alone / FICI: NDM-KP; for FICI: MER + compound, 256 µg mL^-1 set as MIC of Bi(III)
Experimental: as §1, §2, §3

NDM-1 [7] = target: T1, NDM-1; format: biochemical; settings: NDM-1 50 nM, 1 h preincubation, MER substrate
Experimental: (§4) Freshly prepared 50 nM of Zn2-NDM-1, Zn2-VIM-2, or Zn2-IMP-4 in 50 mM HEPES/Na pH 7.0, 100 mM NaCl were first incubated with various concentrations of CBS for 1 h at 25 °C, then mixed with equal volume of 0.2 mM MER. The assay was performed in a 1 cm quartz cuvette using the kinetic mode on a Varian Cary50 UV-visible spectrophotometer at 25 °C. The decrease in absorbance at 300 nm due to ring-opening of MER was monitored every second for a duration of 10 min until the reaction was completed. The initial rates were extracted and calculated from each reaction curves for fitting IC50 curves.
Target sequence in this assay (C7C422 29-270, looked up, species assumed): as above

VIM-2 = VIM-2 (Escherichia coli, UniProt Q5U7L7); format: biochemical; settings: VIM-2 50 nM, 1 h preincubation, MER substrate
Experimental: as §4

IMP-4 = assay: IC50 enzyme inhibition assay; format: biochemical; settings: IMP-4 50 nM, 1 h preincubation, MER substrate
Experimental: as §4

NDM-HK [8] = assay: Time kill assay; format: cell-based, E. coli; settings: MER 24 µg mL^−1 + Bi(NAC)3 32 µg mL^−1
Experimental: Time kill assay was used to further explore the synergy between MER and Bi(III) compounds. In a typical assay, NDM-HK was cultured overnight and diluted 1:250 into LB broth at 37 °C for 3 h to reach log phase. The initial bacterial density was adjusted to ~10^7 CFU mL^−1 and then exposed to MER, Bi(III) compounds either alone or in combination. LB broth with no drugs served as a control. Aliquots of bacterial suspension were withdrawn at different time intervals (0, 1, 2, 4, 6, 8, and 24 h) for inspection of bacterial viability by agar plating. The concentrations of the drugs used in the test are 24 µg mL^−1 for MER, 64 µg mL^−1 for CBS, and 32 µg mL^−1 for Bi(NAC)3. Data from three independent experiments were averaged and plotted as log10 CFU mL^−1 vs. time (h) for each time point over 24 h. All assays were triplicated and performed three times on different days.

[9] = system: MBL-positive bacterial strains; settings: with MER, different MBL-positive strains
Experimental: as §1, §2, §3

NDM-HK [10] = assay: Resistance study: MPC and mutation frequency; format: cell-based, E. coli; settings: ≥64 µg mL^−1 Bi(NAC)3

Chain of NDM-1-C208A (C7C422 29-270 C208A): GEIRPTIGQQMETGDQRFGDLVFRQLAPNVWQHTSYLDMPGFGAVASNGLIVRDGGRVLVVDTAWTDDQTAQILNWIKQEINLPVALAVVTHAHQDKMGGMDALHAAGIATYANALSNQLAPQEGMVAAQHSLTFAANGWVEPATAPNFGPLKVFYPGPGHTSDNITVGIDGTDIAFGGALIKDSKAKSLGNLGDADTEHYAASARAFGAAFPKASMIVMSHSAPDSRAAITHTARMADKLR

| Compound | NDM-1 melting temperature, treated group (NDM-1 [3]) [°C] | MBC of MER in combination with compound at 32 µg mL^-1 [4] | MIC of MER in combination with compound at 32 µg mL^-1 [4] | MBC of Bi(III) compound alone [4] [µg/mL] | MIC of Bi(III) compound alone [4] [µg/mL] | FICI [4] | MBC of MER in combination with compound at 32 µg mL^-1 (VIM-BL21 (VIM-2^+)) [µg/mL] | MIC of MER in combination with compound at 32 µg mL^-1 (VIM-BL21 (VIM-2^+)) [µg/mL] | FICI (VIM-BL21 (VIM-2^+)) | MBC of Bi(III) compound/inhibitor alone (NDM-HK (NDM-1^+); NDM-HK) [µg/mL] | MBC of MER in combination with compound at 32 µg mL^-1 (NDM-HK (NDM-1^+); NDM-HK) [µg/mL] | MIC of Bi(III) compound/inhibitor alone (NDM-HK (NDM-1^+); NDM-HK) [µg/mL] | MIC of MER in combination with compound at 32 µg mL^-1 (NDM-HK (NDM-1^+); NDM-HK) [µg/mL] | MBC of MER in combination with compound at 32 µg mL^-1 (IMP-BL21 (IMP-4^+)) | MIC of MER in combination with compound at 32 µg mL^-1 (IMP-BL21 (IMP-4^+)) | FICI (IMP-BL21 (IMP-4^+)) | MBC of MER in combination with compound at 32 µg mL^-1 [6] | MIC of MER in combination with compound at 32 µg mL^-1 [6] | MBC of Bi(III) compound alone [6] [µg/mL] | MIC of Bi(III) compound alone [6] [µg/mL] | further results |
| --- | --- | --- | --- | --- | --- | --- | --- | --- | --- | --- | --- | --- | --- | --- | --- | --- | --- | --- | --- | --- | --- |
| [Bi+3] [Bi(III)] | – | – | – | – | – | – | – | – | – | – | – | – | – | – | – | – | – | – | – | – | Bi(III) bound to the mutant (NDM-1-C208A): ca. 0.25 molar equivalents; activity restored for Bi-bound NDM-1 (NDM-1 [1]): about 20%; apparent Vmax (NDM-1 [2]; Bi(III) 1.5 µM (as Bi(NIT)3), 0.900 at 0 µM): 0.365 µM/s |
| O=[N+]([O-])[O-].O=[N+]([O-])[O-].O=[N+]([O-])[O-].[Bi+3] [Bi(NIT)3, bismuth nitrate] | 48.1 | 4 µg/mL | 2 µg/mL | > 256 | > 256 | 0.375 | 2 | 1 | 0.063 | > 256 | 4 | > 256 | 2 | 8 µg/mL | 4 µg/mL | 0.250 | 1 µg mL^-1 and 1/1 µg mL^-1 | 1 µg mL^-1 and 1/1 µg mL^-1 | > 256 | > 256 | colony-forming unit (CFU) counting on agar plate after serial dilutions (NDM-HK [5]; MER 8 μg mL-1 + metal compound 10 μM): no colony was observed; growth inhibition based on optical density (OD) reading (NDM-HK [5]; metal compound 10, 50, 200 µM with MER at ½MIC (8 μg mL^−1), 24 h): > 90%; FICI (NDM-HK (NDM-1^+); NDM-HK, MER + compound, 256 µg mL^-1 set as MIC of Bi(III), 128 for Bi(NAC)3): 0.266; FICI [6]: 0.125; IC50 (NDM-1 [7]): 700 ± 130 nM; IC50 (VIM-2): 1200 ± 130 nM; IC50 (IMP-4): 990 ± 190 nM; inhibition mode (Lineweaver Burk plot) (NDM-1 [2]; MER substrate 10 to 150 µM): either a non-competitive or an irreversible inhibition mode |
| CC(=O)N[C@@H](C[S][Bi]([S]C[C@H](NC(C)=O)C(=O)O)[S]C[C@H](NC(C)=O)C(=O)O)C(=O)O [Bi(NAC)3] | 47.7 | 0.5 µg mL^-1 and 0.5/0.5 µg mL^-1 | 0.5 µg mL^-1 and 0.5/0.5 µg mL^-1 | > 256 | 256 | 0.188 | 1 | 0.5 | 0.063 | > 256 | 0.5 | 128 | 0.5 | 2 µg mL^-1 and 2/2 µg mL^-1 | 2 µg mL^-1 and 2/2 µg mL^-1 | 0.125 | 2 µg/mL | 1 µg/mL | > 256 | 256 | decrease in the MIC of MER (VIM-BL21 (VIM-2^+); VIM-2-positive E. coli): 64 fold; decrease in the MIC of MER (NDM-HK (NDM-1^+); NDM-1-positive E. coli): 32 fold; decrease in the MIC of MER (IMP-BL21 (IMP-4^+); IMP-4-positive E. coli): 16 fold; time to eradicate the bacterium completely (NDM-HK [8]): ≤ 6 h; FICI [6]: 0.188; IC50 (NDM-1 [7]): 1650 ± 600 nM; IC50 (VIM-2): 2650 ± 570 nM; IC50 (IMP-4): 2800 ± 790 nM; FICI values [9]: 0.063 to 0.188; MER MPC with Bi(NAC)3 (NDM-HK [10]): 2 fold MIC |

From article PMC5789847, “Bismuth antimicrobial drugs serve as broad-spectrum metallo-β-lactamase inhibitors” (Nature Communications, 2018)
